Source: patent publication US20120219615A1, “Therapeutic Use of a TLR Agonist and Combination Therapy” (The Trustees of the University of Pennsylvania, priority 2010, published 2012)

Tested on: G-CSF, MCP-1, MIP-1β, TNFα
Test: Phase I clinical study: pharmacodynamic response, plasma immune mediators (MAP)
Assay type: in vivo
Settings: human, s.c., first dose
Description: Study Procedures: VTX-2337 was administered weekly via subcutaneous injection on Days 1, 8, and 15 of a 28-day dosing cycle for two cycles. Using a modified Fibonacci dose-escalation scheme, successive cohorts received doses ranging from 0.1 mg/m^2 to 3.9 mg/m^2 of VTX-2337. Plasma samples were collected for pharmacokinetic analysis after the first dose of the first treatment cycle and for pharmacodynamic analyses after the first dose of the first and second treatment cycles.
To evaluate the pharmacodynamic (PD) response to VTX-2337, blood was collected at 0, 4, 8, 24 hours after subcutaneous administration of the first dose of the first cycle of VTX-2337. Plasma levels of immune mediators were quantified using the human multiple analyte panel (MAP), version 1.8 (Rules Based Medicine). […] Levels of mediators in plasma collected from 9 healthy volunteers are shown for comparison to the oncology population. […]

CCCN(CCC)C(=O)C1=Cc2ccc(-c3ccc(C(=O)N4CCCC4)cc3)cc2N=C(N)C1 [VTX-2337, 2-amino-N,N-dipropyl-8-(4-(pyrrolidine-1-carbonyl)phenyl)-3H-benzo[b]azepine-4-carboxamide]
G-CSF plasma level (Cohort 5 (1.3 mg/m^2), 0 Hr): 5.0 ± 0.3 pg/mL | MCP-1 plasma level (Cohort 5 (1.3 mg/m^2), 0 Hr): 227 ± 79.8 pg/mL | MIP-1β plasma level (Cohort 5 (1.3 mg/m^2), 0 Hr): 182 ± 36.9 pg/mL | TNFα plasma level (Cohort 5 (1.3 mg/m^2), 0 Hr): 9.3 ± 4.1 pg/mL | G-CSF plasma level (Cohort 5 (1.3 mg/m^2), 4 Hr): 20.5 ± 24.7 pg/mL | MCP-1 plasma level (Cohort 5 (1.3 mg/m^2), 4 Hr): 911 ± 951 pg/mL | MIP-1β plasma level (Cohort 5 (1.3 mg/m^2), 4 Hr): 543 ± 477 pg/mL | TNFα plasma level (Cohort 5 (1.3 mg/m^2), 4 Hr): 14.9 ± 12.5 pg/mL | G-CSF plasma level (Cohort 5 (1.3 mg/m^2), 8 Hr): 196 ± 145 pg/mL | MCP-1 plasma level (Cohort 5 (1.3 mg/m^2), 8 Hr): 954 ± 638 pg/mL | MIP-1β plasma level (Cohort 5 (1.3 mg/m^2), 8 Hr): 688 ± 635 pg/mL | TNFα plasma level (Cohort 5 (1.3 mg/m^2), 8 Hr): 21.6 ± 13.3 pg/mL | G-CSF plasma level (Cohort 5 (1.3 mg/m^2), 24 Hr): 30.8 ± 10.4 pg/mL | MCP-1 plasma level (Cohort 5 (1.3 mg/m^2), 24 Hr): 246 ± 158 pg/mL | MIP-1β plasma level (Cohort 5 (1.3 mg/m^2), 24 Hr): 228 ± 70.1 pg/mL | TNFα plasma level (Cohort 5 (1.3 mg/m^2), 24 Hr): 15.3 ± 4.2 pg/mL | G-CSF plasma level (Cohort 6 (2.0 mg/m^2), 0 Hr): 9.9 ± 8.2 pg/mL | MCP-1 plasma level (Cohort 6 (2.0 mg/m^2), 0 Hr): 265 ± 161 pg/mL | MIP-1β plasma level (Cohort 6 (2.0 mg/m^2), 0 Hr): 136 ± 28.3 pg/mL | TNFα plasma level (Cohort 6 (2.0 mg/m^2), 0 Hr): 4.4 ± 1.6 pg/mL | G-CSF plasma level (Cohort 6 (2.0 mg/m^2), 4 Hr): 14.0 ± 4.3 pg/mL | MCP-1 plasma level (Cohort 6 (2.0 mg/m^2), 4 Hr): 247 ± 80.5 pg/mL | MIP-1β plasma level (Cohort 6 (2.0 mg/m^2), 4 Hr): 196 ± 62.5 pg/mL | TNFα plasma level (Cohort 6 (2.0 mg/m^2), 4 Hr): 8.4 ± 1.5 pg/mL | G-CSF plasma level (Cohort 6 (2.0 mg/m^2), 8 Hr): 134 ± 149 pg/mL | MCP-1 plasma level (Cohort 6 (2.0 mg/m^2), 8 Hr): 722 ± 224 pg/mL | MIP-1β plasma level (Cohort 6 (2.0 mg/m^2), 8 Hr): 289 ± 111 pg/mL | TNFα plasma level (Cohort 6 (2.0 mg/m^2), 8 Hr): 10.0 ± 2.3 pg/mL | G-CSF plasma level (Cohort 6 (2.0 mg/m^2), 24 Hr): 42.2 ± 31.6 pg/mL | MCP-1 plasma level (Cohort 6 (2.0 mg/m^2), 24 Hr): 320 ± 244 pg/mL | MIP-1β plasma level (Cohort 6 (2.0 mg/m^2), 24 Hr): 155 ± 26 pg/mL | TNFα plasma level (Cohort 6 (2.0 mg/m^2), 24 Hr): 10.0 ± 0.2 pg/mL | G-CSF plasma level (Cohort 7 (2.8 mg/m^2), 0 Hr): 7.4 ± 3.2 pg/mL | MCP-1 plasma level (Cohort 7 (2.8 mg/m^2), 0 Hr): 250 ± 110 pg/mL | MIP-1β plasma level (Cohort 7 (2.8 mg/m^2), 0 Hr): 136 ± 22 pg/mL | TNFα plasma level (Cohort 7 (2.8 mg/m^2), 0 Hr): 6.1 ± 1.8 pg/mL | G-CSF plasma level (Cohort 7 (2.8 mg/m^2), 4 Hr): 12.4 ± 2.4 pg/mL | MCP-1 plasma level (Cohort 7 (2.8 mg/m^2), 4 Hr): 719 ± 433 pg/mL | MIP-1β plasma level (Cohort 7 (2.8 mg/m^2), 4 Hr): 517 ± 305 pg/mL | TNFα plasma level (Cohort 7 (2.8 mg/m^2), 4 Hr): 10.9 ± 1.4 pg/mL | G-CSF plasma level (Cohort 7 (2.8 mg/m^2), 8 Hr): 553 ± 246 pg/mL | MCP-1 plasma level (Cohort 7 (2.8 mg/m^2), 8 Hr): 2043 ± 760 pg/mL | MIP-1β plasma level (Cohort 7 (2.8 mg/m^2), 8 Hr): 646 ± 216 pg/mL | TNFα plasma level (Cohort 7 (2.8 mg/m^2), 8 Hr): 12.8 ± 2.5 pg/mL | G-CSF plasma level (Cohort 7 (2.8 mg/m^2), 24 Hr): 59.0 ± 31.7 pg/mL | MCP-1 plasma level (Cohort 7 (2.8 mg/m^2), 24 Hr): 273 ± 109 pg/mL | MIP-1β plasma level (Cohort 7 (2.8 mg/m^2), 24 Hr): 152 ± 82 pg/mL | TNFα plasma level (Cohort 7 (2.8 mg/m^2), 24 Hr): 8.8 ± 4.1 pg/mL | G-CSF plasma level (Cohort 8 (3.9 mg/m^2), 0 Hr): 29.1 ± 55.8 pg/mL | MCP-1 plasma level (Cohort 8 (3.9 mg/m^2), 0 Hr): 249 ± 56 pg/mL | MIP-1β plasma level (Cohort 8 (3.9 mg/m^2), 0 Hr): 236 ± 111 pg/mL | TNFα plasma level (Cohort 8 (3.9 mg/m^2), 0 Hr): 14.9 ± 9.1 pg/mL | G-CSF plasma level (Cohort 8 (3.9 mg/m^2), 4 Hr): 83.3 ± 104.7 pg/mL | MCP-1 plasma level (Cohort 8 (3.9 mg/m^2), 4 Hr): 5227 ± 8362 pg/mL | MIP-1β plasma level (Cohort 8 (3.9 mg/m^2), 4 Hr): 7793 ± 10824 pg/mL | TNFα plasma level (Cohort 8 (3.9 mg/m^2), 4 Hr): 56.9 ± 48.3 pg/mL | G-CSF plasma level (Cohort 8 (3.9 mg/m^2), 8 Hr): 2151 ± 3586 pg/mL | MCP-1 plasma level (Cohort 8 (3.9 mg/m^2), 8 Hr): 8128 ± 10588 pg/mL | MIP-1β plasma level (Cohort 8 (3.9 mg/m^2), 8 Hr): 2259 ± 2456 pg/mL | TNFα plasma level (Cohort 8 (3.9 mg/m^2), 8 Hr): 42.7 ± 27.4 pg/mL | G-CSF plasma level (Cohort 8 (3.9 mg/m^2), 24 Hr): 141.4 ± 228.8 pg/mL | MCP-1 plasma level (Cohort 8 (3.9 mg/m^2), 24 Hr): 532 ± 571 pg/mL | MIP-1β plasma level (Cohort 8 (3.9 mg/m^2), 24 Hr): 276 ± 108 pg/mL | TNFα plasma level (Cohort 8 (3.9 mg/m^2), 24 Hr): 24.2 ± 9.4 pg/mL
